Assay results published in patent publication US20230203023A1, “SALT AND CRYSTAL FORMS OF GLP-1R AGONISTS AND USES THEREOF” (QILU REGOR THERAPEUTICS INC., priority 2020, published 2023).
Where a name gives a salt, the structure may show the parent alone. Marks after values point to notes of the source that are not given here.

Assays:
Format in all cases: physicochemical
[1] = Solid stability evaluation (I/II), XRPD and HPLC
Outline: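 Tris salt Form A and amorphous free form of Compound I, and Compound II citrate salt Form A, Tris salt Form B and free form, stored as solids at 60° C. for 1 day and at 25° C./60% RH or 40° C./75% RH for 1 week. Physical form checked by XRPD and chemical stability by HPLC.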

[2] = Solid stability evaluation (II/II), HPLC in triplicate
Description: The chemical stability of 1:1 Compound II Citrate Salt (Form A) and 1:1 Compound II Tris Salt (Form B) was further evaluated at solid state, samples were stored under the ambient condition or 40° C./75% RH for 1 day and 3 days, respectively.

[3] = Solution stability evaluation in SGF (pH 1.8) and pH 8.0 buffer at RT; conditions: RT
Description: Weigh 100 mg of sodium chloride and 50 mg of Triton X-100 into a 50-mL volumetric flask. Add appropriate volume of purified water and sonicate until all solids are completely dissolved. Add about 68 μL of 12 M HCl and sufficient purified water closely to the target volume and adjust to pH 1.8. Dilute to volume with purified water, mix well and check the pH with a pH meter.
Add sufficient purified water closely to the target volume and adjust to pH 8.0. Dilute to volume with purified water, mix well and check the pH with a pH meter. […]
Solution stability was evaluated for 1:1 Compound II Citrate Salt (Form A) and 1:1 Compound II Tris Salt (Form B) in SGF (pH 1.8) and pH 8.0 buffer at RT. Clear solutions were prepared at two concentrations (0.01 mg/mL, 0.05 mg/mL) and then placed at RT for 6 hours, 1/5 days or 6 hours, 1/3/7 days. […] The HPLC purity and pH value were tested and the results were summarized from Table 7-3-1 to Table 7-3-4.

Hygroscopicity, DVS test = conditions: 25° C.
Description: DVS was measured via a SMS (Surface Measurement Systems) DVS Intrinsic. The relative humidity at 25° C. were calibrated against deliquescence point of LiCl, Mg(NO3)2 and KCl.
To investigate the solid form stability as a function of humidity, DVS isotherm plot of 1:1 Compound I Tris Salt (Form A) was collected between 0% RH and 95% RH at 25° C. […] Considering the 1:1 Compound I Tris Salt (Form A) is a hydrate and may dehydrate under low humidity, DVS was also tested at 20 and 30° C. to further confirm the suitable storage condition and avoid dehydration. […] Combing the VH-XRPD and DVS results: the condition of 20-30° C. and relative humidity ≥40% RH is suitable for the storage of 1:1 Compound I Tris Salt (Form A).
To investigate the solid form stability as a function of humidity, DVS isotherm plots of 1:1 Compound II Citrate Salt (Form A) and 1:1 Compound II Tris Salt (Form B) were collected at 25° C. between 0% RH and 95% RH. […] The water uptake increased by 0.97% from 10% to 80% RH and a platform was observed.

[4] = 6 hours, 0.01 mg/mL, pH 1.8 (SGF)
[5] = 6 hours, 0.01 mg/mL, pH 8.0 (50 mM phosphate)
[6] = 6 hours, 0.05 mg/mL, pH 1.8 (SGF)
[7] = 6 hours, 0.05 mg/mL, pH 8.0 (50 mM phosphate)
[8] = 1 day, 0.01 mg/mL, pH 1.8 (SGF)
[9] = 1 day, 0.01 mg/mL, pH 8.0 (50 mM phosphate)
[10] = 1 day, 0.05 mg/mL, pH 1.8 (SGF)
[11] = 1 day, 0.05 mg/mL, pH 8.0 (50 mM phosphate)
[12] = 3 days, 0.01 mg/mL, pH 1.8 (SGF)
[13] = 3 days, 0.01 mg/mL, pH 8.0 (50 mM phosphate)
[14] = 3 days, 0.05 mg/mL, pH 1.8 (SGF)
[15] = 3 days, 0.05 mg/mL, pH 8.0 (50 mM phosphate)
[16] = 7 days, 0.01 mg/mL, pH 1.8 (SGF)
[17] = 7 days, 0.01 mg/mL, pH 8.0 (50 mM phosphate)
[18] = 7 days, 0.05 mg/mL, pH 1.8 (SGF)
[19] = 7 days, 0.05 mg/mL, pH 8.0 (50 mM phosphate)
[20] = Initial, 0.01 mg/mL, pH 1.8 (SGF)
[21] = Initial, 0.01 mg/mL, pH 8.0 (50 mM phosphate)
[22] = Initial, 0.05 mg/mL, pH 1.8 (SGF)
[23] = Initial, 0.05 mg/mL, pH 8.0 (50 mM phosphate)

Form change ([1]; 25° C./60% RH (open), 1 week): No
Observation ([1]; 25° C./60% RH (open), 1 week): Yellow
Purity (area %) ([1]; 25° C./60% RH (open), 1 week): 93.86 area %
Form change ([1]; 40° C./75% RH (open), 1 week): No
Observation ([1]; 40° C./75% RH (open), 1 week): Yellow
Purity (area %) ([1]; 40° C./75% RH (open), 1 week): 94.13 area %
Chemical stability compared with free form ([1]; 60° C. 1 day, 25° C./60% RH or 40° C./75% RH 1 week): better chemical stability
Form change ([1]; 60° C. (capped), 1 day): No
Observation ([1]; 60° C. (capped), 1 day): Yellow
Purity (area %) ([1]; 60° C. (capped), 1 day): 92.98 area %
Form change ([1]; Initial): No
Observation ([1]; Initial): Yellowish
Purity (area %) ([1]; Initial): 94.56 area %
Ave. Purity (area %) ([2]; 40° C./75% RH (open), 1 day): 94.5 area %
Ave. Purity (area %) ([2]; 40° C./75% RH (open), 3 days): 94.8 area %
Ave. Purity (area %) ([2]; Ambient condition (open), 1 day): 94.4 area %
Ave. Purity (area %) ([2]; Ambient condition (open), 3 days): 94.2 area %
Ave. Purity (area %) ([2]; Initial): 95.5 area %
Purity (% area) [3, 4]: 94.92 % area
Purity vs. Initial (%) [3, 4]: 99.7%
pH [3, 4]: 1.8
Purity (% area) [3, 5]: 98.97 % area
Purity vs. Initial (%) [3, 5]: 99.9%
pH [3, 5]: 8.0
Purity (% area) [3, 6]: 97.53 % area
Purity vs. Initial (%) [3, 6]: 99.3%
pH [3, 6]: 1.8
Purity (% area) [3, 7]: 99.28 % area
Purity vs. Initial (%) [3, 7]: 100.0%
pH [3, 7]: 8.0
Purity (% area) [3, 8]: 94.11 % area
Purity vs. Initial (%) [3, 8]: 98.8%
pH [3, 8]: 1.8
Purity (% area) [3, 9]: 98.38 % area
Purity vs. Initial (%) [3, 9]: 99.3%
pH [3, 9]: 8.0
Purity (% area) [3, 10]: 96.40 % area
Purity vs. Initial (%) [3, 10]: 98.1%
pH [3, 10]: 1.8
Purity (% area) [3, 11]: 98.86 % area
Purity vs. Initial (%) [3, 11]: 99.6%
pH [3, 11]: 8.0
Purity (% area) [3, 12]: 91.81 % area
Purity vs. Initial (%) [3, 12]: 96.4%
pH [3, 12]: 1.8
Purity (% area) [3, 13]: 98.26 % area
Purity vs. Initial (%) [3, 13]: 99.2%
pH [3, 13]: 8.0
Purity (% area) [3, 14]: 93.38 % area
Purity vs. Initial (%) [3, 14]: 95.0%
pH [3, 14]: 1.8
Purity (% area) [3, 15]: 98.98 % area
Purity vs. Initial (%) [3, 15]: 99.7%
pH [3, 15]: 8.0
Purity (% area) [3, 16]: 87.14 % area
Purity vs. Initial (%) [3, 16]: 91.5%
pH [3, 16]: 1.8
Purity (% area) [3, 17]: 97.31 % area
Purity vs. Initial (%) [3, 17]: 98.3%
pH [3, 17]: 8.0
Purity (% area) [3, 18]: 87.15* % area
Purity vs. Initial (%) [3, 18]: 88.7%
pH [3, 18]: 1.8
Purity (% area) [3, 19]: 98.75 % area
Purity vs. Initial (%) [3, 19]: 99.5%
pH [3, 19]: 8.0
Purity (% area) [3, 20]: 95.25 % area
pH [3, 20]: 1.8
Purity (% area) [3, 21]: 99.04 % area
pH [3, 21]: 8.0
Purity (% area) [3, 22]: 98.26 % area
pH [3, 22]: 1.8
Purity (% area) [3, 23]: 99.27 % area
pH [3, 23]: 8.0
Form change after DVS test (Hygroscopicity, DVS test): No
Hygroscopicity (Hygroscopicity, DVS test; according to Chinese Pharmacopeia 2015): Slightly hygroscopic
Water uptake increase between 0% and 10% RH (Hygroscopicity, DVS test; cycle 2 sorption curve): 2.47%
Water uptake from 10% RH to 80% RH (Hygroscopicity, DVS test): 0.97%*
Water uptake from 10% RH to 80% RH (Hygroscopicity, DVS test; listed as 1:1 Compound II Tris Salt (Form B)): 0.97%
SMILES: N#Cc1ccc(COc2cccc(C3=CCN(Cc4nc5ccc(C(=O)O)cc5n4C[C@@H]4CCO4)CC3)n2)c(F)c1 [Tris salt Form B, (S)-2-((6-((4-cyano-2-fluorobenzyl)oxy)-3′,6′-dihydro-[2,4′-bipyridin]-1′(2′H)-yl)methyl)-1-(oxetan-2-ylmethyl)-1H-benzo[d]imidazole-6-carboxylic acid]
